Data published in US20140212381A1, “MACROCYCLES” (Scynexis, Inc., priority 2012, published 2014).
≈ marks a conversion by molar mass, not a printed value. Like-named read-outs stand apart in the source and are kept apart here. Numbered stars: 1 amine (or outer) side, 2 acyl side, 3 side chain; on linkers, the order of the positions; unused ones are H or OH. Square brackets hold non-standard residues; d marks the D form. Peptide text beside a SMILES is read from it. ξ: configuration not given here. X5 = CCN(CC)C1(CS[C@H](C(=O)[*:2])N(C)[*:1])CC1; X1 = CN(C)C1(CS[C@H](C(=O)[*:2])N(C)[*:1])CCC1; X6 = CCN(C)C1(CS[C@H](C(=O)[*:2])N(C)[*:1])CC1; ξNMeBmt = C/C=C/C[C@@H](C)[C@@H](O)C(NC)C(=O)O; X2 = CC(C)[C@H](C(=O)[*:2])N(Cc1ccccc1)[*:1]; NMeLeu(4-OH) = CN[C@@H](CC(C)(C)O)C(=O)O; NMeL = CN[C@@H](CC(C)C)C(=O)O; dNMeL = CN[C@H](CC(C)C)C(=O)O; dNMeV = CN[C@@H](C(=O)O)C(C)C; dAbu = CC[C@@H](N)C(=O)O

Assays:
Cyclophilin B = Cyclophilin B (Homo sapiens, UniProt P23284); assay: Cyclophilin binding, competitive ELISA; conditions: human recombinant cyclophilin
Source text: Plates were washed as described above. […] Plates were washed as described above.

[1] = test system: IL-2 production by stimulated T Cells (Jurkat cells); assay: Inhibition of IL-2 production in stimulated Jurkat cells; type: cell-based; conditions: Homo sapiens, read-out: IL-2 inhibition IC50
Method: Compounds of formula (I) were tested for their inhibition of IL-2 production by stimulated T Cells, using Jurkat cells with anti-CD3 and anti-CD28 co-stimulation. […] Cyclosporine A (control) was also run at a 0.5-Log 9-point titration. starting at 500 ng/mL. All compounds to be tested were dissolved in dimethyl sulfoxide. Cytotoxicity was evaluated with parallel Alamar Blue plates. Jurkat cells were seeded at […] per well in 200 μL growth media in a 96-well plate. Cells were cultured in complete RPMI medium supplemented with 10% fetal bovine serum with one hour incubation at 37° C. with 5% carbon dioxide
PMA and PHA were diluted in complete media to a final concentration of 1 ng/mL and 5 μg/mL respectively. The diluted compounds were mixed 1:1 and 25 μL of the mixture was added per well. The plates were incubated overnight at 37° C. in 5% CO2.
The following day one hundred microliters of cell culture supernatant were transferred from each well to a non-sterile V-bottom plate and stored plate at −80° C. prior to analysis. Determination of IL-2 concentrations in the supernatant was performed using the Pierce Human IL-2 Colorimetric ELISA kit as per the manufacturer's directions (Pierce, #EH2IL25). Cell culture supernatants were diluted with an equal volume of complete RPMI (25 μL sample+25 μL RPMI per well) prior to testing in order to remain in linear range of the assay.
Duplicate wells containing cells in the absence of PMA/PHA and test drug (background) and duplicate wells containing cells stimulated with PMA/PHA in the absence of test drug (100% production of IL-2) were included as controls. Activated cells treated with DMSO were used to normalize IL-2 values. IL-2 standard curves were generated using a 4-parameter curve fit in SoftMax Pro software from Molecular Devices.
Two independent assays were performed to evaluate the effect of cyclosporine A and representative compounds on IL-2 production in PMA/PHA stimulated Jurkat cells (mean values were calculated).

[2] = test system: HCV RNA replicon, Genotype 1b; assay: HCV replicon assay, 1b replicon (LUC); conditions: Hepatitis C virus, GETYPE1B, in Homo sapiens, 72 h, read-out: mean EC50, Genotype 1b
Source text: Compounds were examined in the human hepatoma cell a HCV RNA replicon containing a stable luciferase (LUC) reporter. The HCV RNA replicon ET contains the 5′ end of HCV (with the HCV Internal Ribosome Entry Site (IRES) and the first few amino acids of the HCV core protein) which drives the production of neomycin phosphotransferase (NeoR) fusion protein. A luciferase reported is incorporated into 1b replicon. The EMCV IRES element controls the translation of the HCV structural proteins NS3-NS5. The NS3 protein cleaves the HCV polyprotein to release the mature NS3, NS4A, NS4B, NS5A and NS5B proteins that are required for HCV replication. At the 3′ end of the replicon is the authentic 3′ NTR of HCV. The activity of the LUC reporter is directly proportional to HCV replication levels and positive-control antiviral compounds produce a reproducible antiviral response using the LUC endpoint.
The compounds were dissolved in DMSO at six half-log concentrations. HCV replicon cells were plated out into 96 well plates dedicated for the analysis of cell numbers (cytotoxicity) or antiviral activity and the next day the compounds were added to the appropriate wells. The cells were processed 72 hours later when the cells were still subconfluent. […] Compound EC50 and EC90 values were derived from HCV RNA levels assessed as HCV RNA replicon derived LUC activity. Cytotoxicity was expressed as IC50 and IC90, the concentration of compound that inhibited cell viability by 50% and 90%, respectively. Compound IC50 and IC90 values were calculated using a colorimetric assay as an indication of cell numbers and cytotoxicity. The activity of the LUC reporter is directly proportional to HCV RNA levels in the human cell line. The HCV-replicon assay was validated in parallel experiments using interferon-alpha-2b as a control. The compounds were tested in 1a replicon, (qRT_PCR/TaqMan), 1b replicon (LUC) and 2a replicon (qRT-PCR/TaqMan).

[3] = test system: Influenza A H1N1 (A/CA/05/09); assay: Anti-influenza virus cytoprotection assay in MDCK cells; type: cell-based; conditions: read-out: levels of inhibition
[4] = test system: Influenza A H3N2 (A/HK/8/68); assay: as above; type: cell-based; conditions: read-out: levels of inhibition
Influenza B (B/Allen/45) = assay: as above; type: cell-based; conditions: read-out: levels of inhibition
[5] = PMA/PHA stimulated Jurkat cells, mean of two independent assays

Sequence of Cyclophilin B (P23284 34-216): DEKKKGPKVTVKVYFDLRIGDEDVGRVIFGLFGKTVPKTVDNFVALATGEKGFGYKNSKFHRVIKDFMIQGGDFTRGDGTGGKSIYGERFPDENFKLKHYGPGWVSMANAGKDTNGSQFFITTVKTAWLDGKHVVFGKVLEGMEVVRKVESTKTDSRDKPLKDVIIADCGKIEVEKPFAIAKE

C/C=C/C[C@@H](C)[C@@H](O)C1C(=O)N[C@H](CC)C(=O)N(C)[C@H](SCC2(N(CC)CC)CC2)C(=O)N(C)[C@@H](CC(C)(C)O)C(=O)N[C@H](C(C)C)C(=O)N(C)[C@H](CC(C)C)C(=O)N[C@H](C)C(=O)N[C@@H](C)C(=O)N(C)[C@H](CC(C)C)C(=O)N(C)[C@H](CC(C)C)C(=O)N(C)[C@H](C(C)C)C(=O)N1C (some centres unmarked) [Compound D] (cyclo(A[dNMeL][dNMeL][dNMeV][ξNMeBmt][dAbu][X5][NMeLeu(4-OH)][dV][dNMeL][dA]))
IC50 (Cyclophilin B): 64 nM | IC50 [1, 5]: 13.4 µg/mL (≈ 9.74 µM) | EC50 [2]: 70 nM

C/C=C/C[C@@H](C)[C@@H](O)C1C(=O)N[C@H](CC)C(=O)N(C)[C@H](SCC2(N(C)CC)CC2)C(=O)N(C)[C@@H](CC(C)(C)O)C(=O)N[C@H](C(C)C)C(=O)N(C)[C@H](CC(C)C)C(=O)N[C@H](C)C(=O)N[C@@H](C)C(=O)N(C)[C@H](CC(C)C)C(=O)N(C)[C@H](CC(C)C)C(=O)N(C)[C@H](C(C)C)C(=O)N1C (some centres unmarked) [Compound E] (cyclo(A[dNMeL][dNMeL][dNMeV][ξNMeBmt][dAbu][X6][NMeLeu(4-OH)][dV][dNMeL][dA]))
IC50 [1, 5]: > 13.6 µg/mL | EC50 [2]: 20 nM

C/C=C/C[C@@H](C)[C@@H](O)C1C(=O)N[C@H](CC)C(=O)N(C)[C@H](SCC2(N(C)C)CCC2)C(=O)N(C)[C@@H](CC(C)C)C(=O)N(Cc2ccccc2)[C@H](C(C)C)C(=O)N(C)[C@H](CC(C)C)C(=O)N[C@H](C)C(=O)N[C@@H](C)C(=O)N(C)[C@H](CC(C)C)C(=O)N(C)[C@H](CC(C)C)C(=O)N(C)[C@H](C(C)C)C(=O)N1C (some centres unmarked) [Compound F] (cyclo(A[dNMeL][dNMeL][dNMeV][ξNMeBmt][dAbu][X1][NMeL][X2][dNMeL][dA]))
inhibition at 10 µM [3]: 98% | inhibition at 10 µM [4]: 68% | inhibition at 10 µM (Influenza B (B/Allen/45)): 15% | IC50 (Cyclophilin B): 43 nM | IC50 ([1]; Jurkat): 0.452 µg/mL (≈ 0.315 µM) | EC50 [2]: 520 nM
